Test system: recombinant human CRF receptors
Test: CRF receptors-binding assay by scintillation proximity (SPA), displacement of 125I-oCRF (CRF1) / 125I-Sauvagine (CRF2)
Conditions: qualitative statement; assay not specified
Description: The CRF receptors-binding assay was performed by using the homogeneous technique of scintillation proximity (SPA). The ligand binds to recombinant membrane preparation expressing the CRF receptors which in turn bind to wheat germ agglutinin coated SPA beads. In the Experimental Part will be disclosed the details of the experiments.
CRF binding affinity has been determined in vitro by the compounds' ability to displace ^125I-oCRF and ^125I-Sauvagine for CRF1 and CRF2 SPA, respectively, from recombinant human CRF receptors expressed in Chinese Hamster Ovary (CHO) cell membranes. For membrane preparation, CHO cells from confluent T-flasks were collected in SPA buffer (HEPES/KOH 50 mM, EDTA 2 mM; MgCl2 10 mM, pH 7.4.) in 50 mL centrifuge tubes, homogenized with a Polytron and centrifuged (50,000 g for 5 min at 4° C.: Beckman centrifuge with JA20 rotor). The pellet was resuspended, homogenized and centrifuged as before.
The SPA experiment has been carried out in Optiplate by the addition of 100 μL the reagent mixture to 1 μL of compound dilution (100% DMSO solution) per well. […]
The plate was incubated overnight (>18 hrs) at room temperature and read with the Packard Topcount with a WGA-SPA ^125I counting protocol.

SMILES: CCC(COC)Oc1nc(C)nc2c1CCN2c1ccc(C(F)(F)F)cc1C(F)(F)F (stereo not shown) [Compound 1-12, 7-(2,4-bis-trifluoromethyl-phenyl)-4-(1-methoxymethyl-propoxy)-2-methyl-6,7-dihydro-5H-pyrrolo[2,3-d]pyrimidine]
- activity: good activity

Source: patent US7462622B2, “Pyrrolo[2, 3-d] pyrimidine derivatives as corticotropin releasing factor antagonists” (Glaxo Group Limited, priority 2001, dated 2008)
